# Experimental data reported in PMC4114247 (Cancer research, 2009).
# Entries after “also recorded” stand apart in the source; their conditions may differ.
# Key:
# [1] = biological target: NAALADase activity of PSMA (Homo sapiens, UniProt Q04609); experiment: NAALADase inhibition in LNCaP cell lysates; format: biochemical
# [2] = biological target: PSMA on human prostate cancer LNCaP cells (Homo sapiens, UniProt Q04609); experiment: Saturation binding analysis on LNCaP cells
# [3] = system: NCr-nu/nu mice bearing PC3 xenografts; experiment: Mouse tissue distribution, PC3 xenografts; format: in vivo; settings: PSMA deficient PC3 xenografts
# [4] = Stability in liver microsomes; format: in vitro ADME; settings: data not shown
# LNCaP cells = experiment: Internalization into LNCaP cells; format: cell-based, human; settings: 100 nM, 0–2 hours
# [5] = system: PC3 cells (PSMA negative); experiment: Direct binding to PC3 cells; settings: 3 nM radioligand, 1 hour; PC3 cells lack PSMA
# PC3 PIP (PSMA +) tumors = settings: mouse, in vivo
# [6] = system: mice bearing LNCaP xenografts; experiment: SPECT/CT imaging, LNCaP xenografts; format: in vivo, mouse; settings: 4 hr after injection
# [7] = Stability in blood plasma; format: in vitro ADME; settings: data not shown
# [8] = biological target: LNCaP cells (PSMA positive) (Homo sapiens, UniProt Q04609); experiment: Direct binding to LNCaP cells
# [9] = system: NCr nude mice bearing LNCaP xenografts; experiment: Mouse tissue distribution, LNCaP xenografts; format: in vivo; settings: for Ratio Tumor:Blood / Ratio Tumor:Skeletal Muscle: ratio based on the %ID/g
# [10] = co-injected with 50 mg/kg PMPA, 2 hours
# LNCaP cells (PSMA positive), sequence (Q04609 whole entry): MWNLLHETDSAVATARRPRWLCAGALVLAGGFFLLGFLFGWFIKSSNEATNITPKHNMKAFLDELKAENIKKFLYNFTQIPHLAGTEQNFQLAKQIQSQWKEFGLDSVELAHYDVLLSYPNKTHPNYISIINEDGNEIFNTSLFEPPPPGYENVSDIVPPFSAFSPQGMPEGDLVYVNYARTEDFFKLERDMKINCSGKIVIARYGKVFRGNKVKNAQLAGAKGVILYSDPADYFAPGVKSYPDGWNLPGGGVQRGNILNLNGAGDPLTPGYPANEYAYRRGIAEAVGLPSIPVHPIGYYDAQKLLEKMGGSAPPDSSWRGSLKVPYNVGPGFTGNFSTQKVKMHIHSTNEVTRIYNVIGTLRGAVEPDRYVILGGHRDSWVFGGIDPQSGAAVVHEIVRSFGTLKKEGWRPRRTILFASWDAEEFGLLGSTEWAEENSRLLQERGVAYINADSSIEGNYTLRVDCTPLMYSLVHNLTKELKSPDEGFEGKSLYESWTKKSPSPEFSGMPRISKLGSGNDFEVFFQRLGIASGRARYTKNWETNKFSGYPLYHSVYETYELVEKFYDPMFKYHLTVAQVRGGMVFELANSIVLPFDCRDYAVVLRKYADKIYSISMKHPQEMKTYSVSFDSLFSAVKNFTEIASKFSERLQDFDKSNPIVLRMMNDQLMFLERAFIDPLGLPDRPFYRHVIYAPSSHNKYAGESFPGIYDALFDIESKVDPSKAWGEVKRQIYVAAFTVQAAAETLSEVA
# PSMA on human prostate cancer LNCaP cells, sequence (Q04609 whole entry): as above
# NAALADase activity of PSMA, sequence (Q04609 whole entry): as above
smiles,measurement,setting,value
"O=C(O)CC[C@H](NC(=O)N[C@@H](CCCCNCc1ccc(I)cc1)C(=O)O)C(=O)O [MIP-1072, (S)-2-(3-((S)-1-carboxy-5-(4–iodobenzylamino)pentyl)ureido)pentanedioic acid]",Ki,[1],4.6 ± 1.6 nM
same,Kd,[2],3.8 ± 1.3 nM
"O=C(O)CC[C@H](NC(=O)N[C@@H](CCCCNC(=O)Nc1ccc(I)cc1)C(=O)O)C(=O)O [MIP-1095, (S)-2-(3-((S)-1-carboxy-5-(3-(4-iodophenyl)ureido)pentyl)ureido)pentanedioic acid]",Kd,[2],0.81 ± 0.39 nM
same,Greater affinity of MIP-1095 over MIP-1072,[2]; saturation binding and NAALADase inhibition studies,approximately 5 fold
"O=C(O)CC[C@H](NC(=O)N[C@@H](CCCCNCc1ccc(I)cc1)C(=O)O)C(=O)O [[^123I]MIP-1072, (S)-2-(3-((S)-1-carboxy-5-(4–iodobenzylamino)pentyl)ureido)pentanedioic acid]",Localization to PC3 tumors,[3],not to the PSMA deficient PC3 tumors
same,Stability in liver microsomes,[4],stable
same,Internalization into LNCaP cells,LNCaP cells; 4 °C,but not at 4 °C
same,Internalization into LNCaP cells,LNCaP cells; 37 °C,internalized; also recorded: time dependent increase in radioactivity associated with the cellular pellet
same,Binding to PC3 cells,[5],no binding; also recorded: not to the PSMA deficient PC3 cells
same,SPECT/CT detection of PC3 PIP (PSMA +) tumors,PC3 PIP (PSMA +) tumors,detected
same,SPECT/CT uptake in kidney and LNCaP tumor,[6],high uptake
same,Stability in blood plasma,[7],stable
same,Binding to LNCaP cells in the presence of non-radiolabeled compound or PMPA,[8]; 3 nM radioligand with 10 µM non-radiolabeled compound or 10 µM PMPA,abolished; also recorded: inhibited
same,Binding to LNCaP cells,"[8]; 3 nM radioligand, 1 hour, room temperature",bound
same,Tissue distribution: Adipose,[9]; 0.25 hr after injection,1.45 ± 0.27 %ID/g
same,Tissue distribution: Blood,[9]; 0.25 hr after injection,2.59 ± 0.24 %ID/g
same,Tissue distribution: Bone,[9]; 0.25 hr after injection,0.69 ± 0.15 %ID/g
same,Tissue distribution: Brain,[9]; 0.25 hr after injection,0.08 ± 0.02 %ID/g
same,Tissue distribution: Heart,[9]; 0.25 hr after injection,1.25 ± 0.22 %ID/g
same,Tissue distribution: Kidneys,[9]; 0.25 hr after injection,90.1 ± 20.2 %ID/g
same,Tissue distribution: Lg Intestine,[9]; 0.25 hr after injection,0.41 ± 0.08 %ID/g
same,Tissue distribution: Liver,[9]; 0.25 hr after injection,2.26 ± 0.56 %ID/g
same,Tissue distribution: Lungs,[9]; 0.25 hr after injection,2.34 ± 0.61 %ID/g
same,Tissue distribution: Sk.Muscle,[9]; 0.25 hr after injection,0.8 ± 0.18 %ID/g
same,Tissue distribution: Sm Intestine,[9]; 0.25 hr after injection,0.83 ± 0.1 %ID/g
same,Tissue distribution: Spleen,[9]; 0.25 hr after injection,4.28 ± 1.67 %ID/g
same,Tissue distribution: Stomach,[9]; 0.25 hr after injection,0.69 ± 0.17 %ID/g
same,Tissue distribution: Testes,[9]; 0.25 hr after injection,0.91 ± 0.24 %ID/g
same,Tissue distribution: Tumor (LNCaP xenograft),[9]; 0.25 hr after injection,12.9 ± 3.3 %ID/g
same,Ratio Tumor:Blood,[9]; 0.25 hr,4.97
same,Ratio Tumor:Skeletal Muscle,[9]; 0.25 hr,16.2
same,Tissue distribution: Adipose,[9]; 1 hr after injection,0.74 ± 0.28 %ID/g
same,Tissue distribution: Blood,[9]; 1 hr after injection,0.47 ± 0.15 %ID/g
same,Tissue distribution: Bone,[9]; 1 hr after injection,0.25 ± 0.07 %ID/g
same,Tissue distribution: Brain,[9]; 1 hr after injection,0.04 ± 0.01 %ID/g
same,Tissue distribution: Heart,[9]; 1 hr after injection,0.31 ± 0.08 %ID/g
same,Tissue distribution: Kidneys,[9]; 1 hr after injection,151 ± 26 %ID/g
same,Tissue distribution: Lg Intestine,[9]; 1 hr after injection,0.15 ± 0.04 %ID/g
same,Tissue distribution: Liver,[9]; 1 hr after injection,2.22 ± 0.43 %ID/g
same,Tissue distribution: Lungs,[9]; 1 hr after injection,0.86 ± 0.24 %ID/g
same,Tissue distribution: Sk.Muscle,[9]; 1 hr after injection,0.35 ± 0.17 %ID/g
same,Tissue distribution: Sm Intestine,[9]; 1 hr after injection,0.41 ± 0.12 %ID/g
same,Tissue distribution: Spleen,[9]; 1 hr after injection,1.91 ± 0.85 %ID/g
same,Tissue distribution: Stomach,[9]; 1 hr after injection,0.26 ± 0.03 %ID/g
same,Tissue distribution: Testes,[9]; 1 hr after injection,0.58 ± 0.19 %ID/g
same,Tissue distribution: Tumor (LNCaP xenograft),[9]; 1 hr after injection,17.4 ± 6.3 %ID/g
same,Ratio Tumor:Blood,[9]; 1 hr,37.1
same,Ratio Tumor:Skeletal Muscle,[9]; 1 hr,50.0
same,Tissue distribution: Adipose,[9]; 2 hr after injection,0.46 ± 0.27 %ID/g
same,Tissue distribution: Blood,[9]; 2 hr after injection,0.21 ± 0.04 %ID/g
same,Tissue distribution: Bone,[9]; 2 hr after injection,0.17 ± 0.08 %ID/g
same,Tissue distribution: Brain,[9]; 2 hr after injection,0.04 ± 0.01 %ID/g
same,Tissue distribution: Heart,[9]; 2 hr after injection,0.19 ± 0.07 %ID/g
same,Tissue distribution: Kidneys,[9]; 2 hr after injection,159 ± 46 %ID/g
same,Tissue distribution: Lg Intestine,[9]; 2 hr after injection,0.28 ± 0.12 %ID/g
same,Tissue distribution: Liver,[9]; 2 hr after injection,2.84 ± 0.63 %ID/g
same,Tissue distribution: Lungs,[9]; 2 hr after injection,0.4 ± 0.19 %ID/g
same,Tissue distribution: Sk.Muscle,[9]; 2 hr after injection,0.2 ± 0.1 %ID/g
same,Tissue distribution: Sm Intestine,[9]; 2 hr after injection,0.35 ± 0.1 %ID/g
same,Tissue distribution: Spleen,[9]; 2 hr after injection,0.75 ± 0.36 %ID/g
same,Tissue distribution: Stomach,[9]; 2 hr after injection,0.21 ± 0.06 %ID/g
same,Tissue distribution: Testes,[9]; 2 hr after injection,0.43 ± 0.16 %ID/g
same,Tissue distribution: Tumor (LNCaP xenograft),[9]; 2 hr after injection,14.0 ± 6.9 %ID/g
same,Ratio Tumor:Blood,[9]; 2 hr,65.4
same,Ratio Tumor:Skeletal Muscle,[9]; 2 hr,70.2
same,Tissue distribution: Adipose,[9]; 4 hr after injection,0.12 ± 0.16 %ID/g
same,Tissue distribution: Bone,[9]; 4 hr after injection,0.1 ± 0.18 %ID/g
same,Tissue distribution: Heart,[9]; 4 hr after injection,0.01 ± 0.02 %ID/g
same,Tissue distribution: Kidneys,[9]; 4 hr after injection,35.8 ± 18.7 %ID/g
same,Tissue distribution: Lg Intestine,[9]; 4 hr after injection,0.48 ± 0.13 %ID/g
same,Tissue distribution: Liver,[9]; 4 hr after injection,2.17 ± 0.67 %ID/g
same,Tissue distribution: Lungs,[9]; 4 hr after injection,0.08 ± 0.04 %ID/g
same,Tissue distribution: Sk.Muscle,[9]; 4 hr after injection,0.08 ± 0.1 %ID/g
same,Tissue distribution: Sm Intestine,[9]; 4 hr after injection,0.24 ± 0.07 %ID/g
same,Tissue distribution: Spleen,[9]; 4 hr after injection,0.16 ± 0.12 %ID/g
same,Tissue distribution: Stomach,[9]; 4 hr after injection,0.11 ± 0.05 %ID/g
same,Tissue distribution: Testes,[9]; 4 hr after injection,0.26 ± 0.17 %ID/g
same,Tissue distribution: Tumor (LNCaP xenograft),[9]; 4 hr after injection,13.7 ± 3.1 %ID/g
same,Ratio Tumor:Blood,[9]; 4 hr,220
same,Ratio Tumor:Skeletal Muscle,[9]; 4 hr,182
same,Tissue distribution: Adipose,[9]; 8 hr after injection,0.04 ± 0.11 %ID/g
same,Tissue distribution: Blood,[9]; 8 hr after injection,0.06 ± 0.03 %ID/g
same,Tissue distribution: Bone,[9]; 8 hr after injection,0.04 ± 0.04 %ID/g
same,Tissue distribution: Brain,[9]; 8 hr after injection,0.02 ± 0.01 %ID/g
same,Tissue distribution: Heart,[9]; 8 hr after injection,0.05 ± 0.04 %ID/g
same,Tissue distribution: Kidneys,[9]; 8 hr after injection,21.5 ± 25.5 %ID/g
same,Tissue distribution: Lg Intestine,[9]; 8 hr after injection,0.72 ± 0.22 %ID/g
same,Tissue distribution: Liver,[9]; 8 hr after injection,1.78 ± 0.4 %ID/g
same,Tissue distribution: Lungs,[9]; 8 hr after injection,0.06 ± 0.03 %ID/g
same,Tissue distribution: Sk.Muscle,[9]; 8 hr after injection,0.02 ± 0.04 %ID/g
same,Tissue distribution: Sm Intestine,[9]; 8 hr after injection,0.27 ± 0.06 %ID/g
same,Tissue distribution: Spleen,[9]; 8 hr after injection,0.18 ± 0.11 %ID/g
same,Tissue distribution: Stomach,[9]; 8 hr after injection,0.21 ± 0.08 %ID/g
same,Tissue distribution: Testes,[9]; 8 hr after injection,0.18 ± 0.14 %ID/g
same,Tissue distribution: Tumor (LNCaP xenograft),[9]; 8 hr after injection,9.74 ± 3.48 %ID/g
same,Ratio Tumor:Blood,[9]; 8 hr,176
same,Ratio Tumor:Skeletal Muscle,[9]; 8 hr,446
same,Tissue distribution: Adipose,[9]; 24 hr after injection,0.01 ± 0.11 %ID/g
same,Tissue distribution: Blood,[9]; 24 hr after injection,0.01 ± 0 %ID/g
same,Tissue distribution: Bone,[9]; 24 hr after injection,0.03 ± 0.05 %ID/g
same,Tissue distribution: Brain,[9]; 24 hr after injection,0.02 ± 0.01 %ID/g
same,Tissue distribution: Heart,[9]; 24 hr after injection,0.01 ± 0.05 %ID/g
same,Tissue distribution: Kidneys,[9]; 24 hr after injection,1.1 ± 0.6 %ID/g
same,Tissue distribution: Lg Intestine,[9]; 24 hr after injection,0.37 ± 0.18 %ID/g
same,Tissue distribution: Liver,[9]; 24 hr after injection,0.29 ± 0.05 %ID/g
same,Tissue distribution: Lungs,[9]; 24 hr after injection,0.05 ± 0.06 %ID/g
same,Tissue distribution: Sk.Muscle,[9]; 24 hr after injection,0.08 ± 0.04 %ID/g
same,Tissue distribution: Sm Intestine,[9]; 24 hr after injection,0.07 ± 0.02 %ID/g
same,Tissue distribution: Spleen,[9]; 24 hr after injection,0.14 ± 0.1 %ID/g
same,Tissue distribution: Stomach,[9]; 24 hr after injection,0.11 ± 0.05 %ID/g
same,Tissue distribution: Testes,[9]; 24 hr after injection,0.05 ± 0.04 %ID/g
same,Tissue distribution: Tumor (LNCaP xenograft),[9]; 24 hr after injection,5.03 ± 1.35 %ID/g
same,Ratio Tumor:Blood,[9]; 24 hr,411
same,Ratio Tumor:Skeletal Muscle,[9]; 24 hr,64.5
same,tumor:blood ratio,[9]; after only a few hours,> 100
same,tumor:skeletal muscle ratio,[9]; after only a few hours,> 100
same,Thyroid content (deiodination),[9]; all time points,< 1 % of the total injected dose
same,Binding to LNCaP tumor xenografts with co-injected PMPA,[9]; [10],blocked
same,Binding to kidneys with co-injected PMPA,[9]; [10],blocked
same,Blood-brain barrier crossing,[9]; from little uptake in the brain,do not cross the blood-brain barrier
same,Route of clearance,"[9]; mouse, in vivo",primarily through urinary excretion
